Source: ChEMBL document CHEMBL5723588, “Data for DCP probe JNJ-3738” (2024)
Values belong to the compound of their own block, whether it stands above or below them. Calls of active or inactive are those of the source. No cut-off for these calls is given here.

Key:
[1] = target: T1, Cyclin-dependent kinase 7 (Homo sapiens, UniProt P50613); assay: (§1) In vitro pharmacodynamics: p-RNA pol II Ser-5 (wtCDK7) ( QuantiGene Plex Gene Expression Assay: downregulation at the messenger level of superenhancer driven genes. The level of phosphorylation of Serine 5 on RNA pol II Vs totalRNA pol II is determined. The level of p-RNA pol II Ser-5 detected and stained with primary (a specific rabbit Phospho-Rpb1 CTD (Ser5) antibody) and secondary antibodies (a goat anti rabbit Alexa Fluor 488 conjugated secondary antibody) after 3 hrs incubation with probe.); type: functional
[2] = target: Cyclin-dependent kinase 7 (Homo sapiens, UniProt P50613, C312S); assay: as §1, with “(CDK7 C312S)” for “(wtCDK7)”; type: functional
[3] = target: T1, Cyclin-dependent kinase 7; assay: Fluorescent end-point assay ( KM ATP app ~30 µM); type: functional
[4] = target: Cyclin-dependent kinase 2 (Homo sapiens) (UniProt P24941); assay: % inhibition of CDK2 in the DiscoverX Kinase panel at 1.0 µM; details: Compound concentration 1.0 uM
[5] = target: T2, Cyclin-dependent kinase 11A/B (Homo sapiens) (UniProt Q9UQ88+P21127); assay: % inhibition of CDK11 in the DiscoverX Kinase panel at 1.0 µM; type: protein assay; details: Compound concentration 1.0 uM
[6] = target: Cyclin-dependent kinase 11B (Homo sapiens) (UniProt P21127); assay: % inhibition of CDK11b in the DiscoverX Kinase panel at 1.0 µM; details: Compound concentration 1.0 uM
[7] = target: Cyclin-dependent kinase 1 (Homo sapiens) (UniProt P06493); assay: Inhibition of CDK1 at 1.0 µM in the ActivX; details: Compound concentration 1.0 uM
[8] = target: Cyclin-dependent kinase 5 (Homo sapiens) (UniProt Q00535); assay: % inhibition of CDK5 in the DiscoverX Kinase panel at 1.0 µM; details: Compound concentration 1.0 uM
[9] = target: Cyclin-dependent kinase 15 (Homo sapiens) (UniProt Q96Q40); assay: % inhibition of CDK15 in the DiscoverX Kinase panel at 1.0 µM; details: Compound concentration 1.0 uM
[10] = target: Cyclin-dependent kinase 20 (Homo sapiens) (UniProt Q8IZL9); assay: Inhibition of CDK20 at 1.0 µM in the ActivX; details: Compound concentration 1.0 uM
[11] = target: T2, Cyclin-dependent kinase 11A/B (Homo sapiens); assay: Inhibition of CDK11 at 1.0 µM in the ActivX; type: protein assay; details: Compound concentration 1.0 uM
[12] = target: Cyclin-dependent kinase 8 (Homo sapiens) (UniProt P49336); assay: Inhibition of CDK8 at 1.0 µM in the ActivX; details: Compound concentration 1.0 uM
[13] = target: Cyclin-dependent kinase 18 (Homo sapiens) (UniProt Q07002); assay: % inhibition of CDK18 in the DiscoverX Kinase panel at 1.0 µM; details: Compound concentration 1.0 uM
[14] = target: T1, Cyclin-dependent kinase 7; assay: % inhibition of CDK7 in the DiscoverX Kinase panel at 1.0 µM
[15] = target: Cyclin-dependent kinase 14 (Homo sapiens) (UniProt O94921); assay: % inhibition of CDK14 in the DiscoverX Kinase panel at 1.0 µM; details: Compound concentration 1.0 uM
[16] = target: Cyclin-dependent kinase 16 (Homo sapiens) (UniProt Q00536); assay: Inhibition of CDK16 at 1.0 µM in the ActivX; details: Compound concentration 1.0 uM
[17] = target: Cyclin-dependent kinase 18 (Homo sapiens) (UniProt Q07002); assay: Inhibition of CDK18 at 1.0 µM in the ActivX; details: Compound concentration 1.0 uM
[18] = target: Cyclin-dependent kinase 11B (Homo sapiens) (UniProt P21127); assay: Inhibition of CDK11b at 1.0 µM in the ActivX; details: Compound concentration 1.0 uM
[19] = target: Cyclin-dependent kinase 4 (Homo sapiens) (UniProt P11802); assay: Inhibition of CDK4 at 1.0 µM in the ActivX; details: Compound concentration 1.0 uM
[20] = target: T1, Cyclin-dependent kinase 7; assay: Inhibition of CDK7 at 1.0 µM in the ActivX; details: Compound concentration 1.0 uM
[21] = target: Cyclin-dependent kinase 17 (Homo sapiens) (UniProt Q00537); assay: % inhibition of CDK17 in the DiscoverX Kinase panel at 1.0 µM; details: Compound concentration 1.0 uM
[22] = target: Serine/threonine-protein kinase 16 (Homo sapiens) (UniProt O75716); assay: Inhibition of MPSK1 at 1.0 µM in the ActivX; details: Compound concentration 1.0 uM
[23] = target: T3, CDK7/Cyclin H/MNAT1 (Homo sapiens) (UniProt P51946+P50613+P51948); assay: (§2) Biochemical CDK7 assay (KIapp) ( CDK7 catalyzed, ATP-dependent, phosphorylation of a peptide substrate derived from RNA Pol II (CDK7/9-tide). Coupled via lactate dehydrogenase (LDH) and pyruvate kinase (PK) to lactate and NAD+ production, with concomitant depletion of NADH. Continuous coupled assay measures CDK7 catalytic activity through the diminished absorbance intensity at 340 nm that corresponds with NADH depletion.); type: functional
[24] = target: Cyclin-dependent kinase 10 (Homo sapiens) (UniProt Q15131); assay: Inhibition of CDK10 at 1.0 µM in the ActivX; details: Compound concentration 1.0 uM
[25] = target: Cyclin-dependent kinase 2 (Homo sapiens) (UniProt P24941); assay: Inhibition of CDK2 at 1.0 µM in the ActivX; details: Compound concentration 1.0 uM
[26] = target: Cyclin-dependent kinase 5 (Homo sapiens) (UniProt Q00535); assay: Inhibition of CDK5 at 1.0 µM in the ActivX; details: Compound concentration 1.0 uM
[27] = target: Cyclin-dependent kinase 4 (Homo sapiens) (UniProt P11802); assay: % inhibition of CDK4 in the DiscoverX Kinase panel at 1.0 µM; details: Compound concentration 1.0 uM
[28] = target: T4, Cyclin-dependent kinase 9 (Homo sapiens, UniProt P50750); assay: Inhibition of CDK9 at 1.0 µM in the ActivX; details: Compound concentration 1.0 uM
[29] = target: Cyclin-dependent kinase 8 (Homo sapiens) (UniProt P49336); assay: % inhibition of CDK8 in the DiscoverX Kinase panel at 1.0 µM; details: Compound concentration 1.0 uM
[30] = target: Cyclin-dependent kinase 6 (Homo sapiens) (UniProt Q00534); assay: Inhibition of CDK6 at 1.0 µM in the ActivX; details: Compound concentration 1.0 uM
[31] = target: Cyclin-dependent kinase 13 (Homo sapiens) (UniProt Q14004); assay: Inhibition of CDK13 at 1.0 µM in the ActivX; details: Compound concentration 1.0 uM
[32] = target: T4, Cyclin-dependent kinase 9; assay: % inhibition of CDK9 in the DiscoverX Kinase panel at 1.0 µM
[33] = target: Cyclin-dependent kinase 14 (Homo sapiens) (UniProt O94921); assay: Inhibition of CDK14 at 1.0 µM in the ActivX; details: Compound concentration 1.0 uM
[34] = target: Cyclin-dependent kinase 15 (Homo sapiens) (UniProt Q96Q40); assay: Inhibition of CDK15 at 1.0 µM in the ActivX; details: Compound concentration 1.0 uM
[35] = target: Cyclin-dependent kinase 17 (Homo sapiens) (UniProt Q00537); assay: Inhibition of CDK17 at 1.0 µM in the ActivX; details: Compound concentration 1.0 uM
[36] = target: Cyclin-dependent kinase 16 (Homo sapiens) (UniProt Q00536); assay: % inhibition of CDK16 in the DiscoverX Kinase panel at 1.0 µM; details: Compound concentration 1.0 uM
[37] = target: Cyclin-dependent kinase 3 (Homo sapiens) (UniProt Q00526); assay: % inhibition of CDK3 in the DiscoverX Kinase panel at 1.0 µM; details: Compound concentration 1.0 uM
[38] = target: Cyclin-dependent kinase 12 (Homo sapiens) (UniProt Q9NYV4); assay: Inhibition of CDK12 at 1.0 µM in the ActivX; details: Compound concentration 1.0 uM
[39] = target: T3, CDK7/Cyclin H/MNAT1 (Homo sapiens); assay: as §2, with “(kinact/KIapp)” for “(KIapp)”; type: functional
[40] = target: Cyclin-dependent kinase 13 (Homo sapiens) (UniProt Q14004); assay: % inhibition of CDK13 in the DiscoverX Kinase panel at 1.0 µM; details: Compound concentration 1.0 uM
[41] = target: Calcium/calmodulin-dependent protein kinase kinase 2 (Homo sapiens) (UniProt Q96RR4); assay: Inhibition of CAMKK2 at 1.0 µM in the ActivX; details: Compound concentration 1.0 uM

T4 sequence (P50750 whole entry): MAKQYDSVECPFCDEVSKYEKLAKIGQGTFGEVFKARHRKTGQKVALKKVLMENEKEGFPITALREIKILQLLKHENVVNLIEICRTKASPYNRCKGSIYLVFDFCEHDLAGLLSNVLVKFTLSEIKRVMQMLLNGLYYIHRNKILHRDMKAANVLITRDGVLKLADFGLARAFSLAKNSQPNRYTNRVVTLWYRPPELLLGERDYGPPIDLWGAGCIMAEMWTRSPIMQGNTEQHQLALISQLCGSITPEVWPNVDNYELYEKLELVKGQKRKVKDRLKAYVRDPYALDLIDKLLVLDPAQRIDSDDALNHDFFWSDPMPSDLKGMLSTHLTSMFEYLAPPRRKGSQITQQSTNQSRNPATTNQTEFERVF
T1 sequence (P50613 whole entry): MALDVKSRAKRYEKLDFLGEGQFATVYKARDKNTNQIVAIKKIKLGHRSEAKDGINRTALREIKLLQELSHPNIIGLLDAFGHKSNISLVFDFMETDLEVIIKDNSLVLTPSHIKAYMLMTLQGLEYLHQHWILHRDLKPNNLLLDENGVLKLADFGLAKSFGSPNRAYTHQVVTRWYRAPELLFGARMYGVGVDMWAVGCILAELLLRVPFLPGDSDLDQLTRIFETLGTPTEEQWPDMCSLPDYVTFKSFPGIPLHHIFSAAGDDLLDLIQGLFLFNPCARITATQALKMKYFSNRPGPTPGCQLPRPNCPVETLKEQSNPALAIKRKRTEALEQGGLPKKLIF
Sequence of Cyclin-dependent kinase 13 (Homo sapiens) (Q14004 whole entry, looked up): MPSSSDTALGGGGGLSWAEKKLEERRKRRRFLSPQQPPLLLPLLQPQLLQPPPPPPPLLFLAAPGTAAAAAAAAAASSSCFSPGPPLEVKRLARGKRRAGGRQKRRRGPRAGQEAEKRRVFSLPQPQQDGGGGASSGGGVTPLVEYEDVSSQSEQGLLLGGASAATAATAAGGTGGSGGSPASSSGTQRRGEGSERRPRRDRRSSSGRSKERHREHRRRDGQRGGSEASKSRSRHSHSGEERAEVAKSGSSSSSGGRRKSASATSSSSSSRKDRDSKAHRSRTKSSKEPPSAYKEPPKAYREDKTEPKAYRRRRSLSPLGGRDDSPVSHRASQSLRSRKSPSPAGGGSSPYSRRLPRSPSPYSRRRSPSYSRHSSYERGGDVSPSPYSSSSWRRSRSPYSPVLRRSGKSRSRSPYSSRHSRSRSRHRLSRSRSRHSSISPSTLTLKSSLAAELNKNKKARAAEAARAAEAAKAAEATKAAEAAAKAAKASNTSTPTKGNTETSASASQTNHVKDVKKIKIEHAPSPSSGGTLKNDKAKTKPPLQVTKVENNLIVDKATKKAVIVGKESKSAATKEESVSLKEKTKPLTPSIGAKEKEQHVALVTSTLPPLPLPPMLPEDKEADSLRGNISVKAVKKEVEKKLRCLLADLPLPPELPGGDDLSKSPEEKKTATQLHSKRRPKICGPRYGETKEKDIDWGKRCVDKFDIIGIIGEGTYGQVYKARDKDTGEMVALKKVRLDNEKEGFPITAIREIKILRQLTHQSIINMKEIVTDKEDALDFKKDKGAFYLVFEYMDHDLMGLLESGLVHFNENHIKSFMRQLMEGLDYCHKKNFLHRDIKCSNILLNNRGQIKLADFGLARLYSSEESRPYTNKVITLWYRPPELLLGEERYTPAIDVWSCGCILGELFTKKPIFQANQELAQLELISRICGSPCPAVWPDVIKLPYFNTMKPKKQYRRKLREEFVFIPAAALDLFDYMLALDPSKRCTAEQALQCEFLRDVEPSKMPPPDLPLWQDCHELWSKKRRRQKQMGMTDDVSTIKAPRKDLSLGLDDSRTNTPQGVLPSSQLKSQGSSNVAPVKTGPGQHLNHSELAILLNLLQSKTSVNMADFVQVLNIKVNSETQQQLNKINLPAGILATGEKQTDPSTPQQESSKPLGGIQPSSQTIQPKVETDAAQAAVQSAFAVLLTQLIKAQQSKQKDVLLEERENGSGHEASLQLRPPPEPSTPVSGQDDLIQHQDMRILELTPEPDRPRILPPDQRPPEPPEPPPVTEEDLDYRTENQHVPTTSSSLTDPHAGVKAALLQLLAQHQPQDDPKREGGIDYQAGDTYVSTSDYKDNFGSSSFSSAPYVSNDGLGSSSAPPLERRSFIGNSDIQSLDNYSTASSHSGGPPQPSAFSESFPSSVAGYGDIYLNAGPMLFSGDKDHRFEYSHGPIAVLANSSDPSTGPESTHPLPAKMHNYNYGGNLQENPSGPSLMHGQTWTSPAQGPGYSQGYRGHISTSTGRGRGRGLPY
Sequence of Cyclin-dependent kinase 8 (Homo sapiens) (P49336 whole entry): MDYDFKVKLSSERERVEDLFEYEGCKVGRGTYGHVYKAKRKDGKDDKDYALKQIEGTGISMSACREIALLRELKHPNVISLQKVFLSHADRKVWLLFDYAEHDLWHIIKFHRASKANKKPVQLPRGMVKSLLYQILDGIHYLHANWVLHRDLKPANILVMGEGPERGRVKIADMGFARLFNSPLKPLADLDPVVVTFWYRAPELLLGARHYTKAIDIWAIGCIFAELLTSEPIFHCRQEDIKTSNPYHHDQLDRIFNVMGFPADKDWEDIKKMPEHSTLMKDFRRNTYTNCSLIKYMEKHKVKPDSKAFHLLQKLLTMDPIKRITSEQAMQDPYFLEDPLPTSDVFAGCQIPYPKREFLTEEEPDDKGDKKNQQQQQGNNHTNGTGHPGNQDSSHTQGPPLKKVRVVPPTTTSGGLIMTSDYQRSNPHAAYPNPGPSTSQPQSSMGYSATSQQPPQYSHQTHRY
Sequence of Cyclin-dependent kinase 7 (Homo sapiens, UniProt P50613, C312S) (P50613 2-346 C312S limits assumed): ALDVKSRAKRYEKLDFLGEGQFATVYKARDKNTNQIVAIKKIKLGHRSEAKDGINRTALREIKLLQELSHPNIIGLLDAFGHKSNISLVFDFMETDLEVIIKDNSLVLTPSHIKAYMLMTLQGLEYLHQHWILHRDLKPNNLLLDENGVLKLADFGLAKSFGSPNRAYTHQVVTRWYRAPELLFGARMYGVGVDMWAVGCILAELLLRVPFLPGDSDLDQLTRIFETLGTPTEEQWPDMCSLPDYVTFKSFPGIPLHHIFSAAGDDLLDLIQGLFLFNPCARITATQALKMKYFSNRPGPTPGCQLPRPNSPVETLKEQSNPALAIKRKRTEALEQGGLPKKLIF
Sequence of Cyclin-dependent kinase 5 (Homo sapiens) (Q00535 whole entry, looked up): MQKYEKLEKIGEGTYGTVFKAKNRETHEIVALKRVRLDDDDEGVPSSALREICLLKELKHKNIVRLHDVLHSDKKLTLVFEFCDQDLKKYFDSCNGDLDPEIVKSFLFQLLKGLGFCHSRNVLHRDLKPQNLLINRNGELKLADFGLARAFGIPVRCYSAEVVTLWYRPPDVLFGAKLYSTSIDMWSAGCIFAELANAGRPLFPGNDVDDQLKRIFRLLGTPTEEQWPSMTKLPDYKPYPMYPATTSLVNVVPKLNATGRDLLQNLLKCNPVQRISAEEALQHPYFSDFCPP
Sequence of Cyclin-dependent kinase 14 (Homo sapiens) (O94921 whole entry): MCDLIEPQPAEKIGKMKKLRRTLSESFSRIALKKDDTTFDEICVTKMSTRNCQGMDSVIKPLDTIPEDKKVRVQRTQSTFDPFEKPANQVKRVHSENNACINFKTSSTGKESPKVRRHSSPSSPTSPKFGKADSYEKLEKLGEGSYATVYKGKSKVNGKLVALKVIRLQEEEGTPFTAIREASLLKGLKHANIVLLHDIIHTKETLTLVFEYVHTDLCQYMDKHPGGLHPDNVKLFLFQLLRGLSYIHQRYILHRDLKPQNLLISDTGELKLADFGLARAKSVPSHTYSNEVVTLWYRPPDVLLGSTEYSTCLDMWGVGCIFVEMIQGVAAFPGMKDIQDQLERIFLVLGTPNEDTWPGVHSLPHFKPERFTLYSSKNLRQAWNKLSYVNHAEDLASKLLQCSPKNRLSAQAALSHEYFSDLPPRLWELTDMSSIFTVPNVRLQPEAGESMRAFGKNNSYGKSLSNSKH
Sequence of Cyclin-dependent kinase 17 (Homo sapiens) (Q00537 whole entry, looked up): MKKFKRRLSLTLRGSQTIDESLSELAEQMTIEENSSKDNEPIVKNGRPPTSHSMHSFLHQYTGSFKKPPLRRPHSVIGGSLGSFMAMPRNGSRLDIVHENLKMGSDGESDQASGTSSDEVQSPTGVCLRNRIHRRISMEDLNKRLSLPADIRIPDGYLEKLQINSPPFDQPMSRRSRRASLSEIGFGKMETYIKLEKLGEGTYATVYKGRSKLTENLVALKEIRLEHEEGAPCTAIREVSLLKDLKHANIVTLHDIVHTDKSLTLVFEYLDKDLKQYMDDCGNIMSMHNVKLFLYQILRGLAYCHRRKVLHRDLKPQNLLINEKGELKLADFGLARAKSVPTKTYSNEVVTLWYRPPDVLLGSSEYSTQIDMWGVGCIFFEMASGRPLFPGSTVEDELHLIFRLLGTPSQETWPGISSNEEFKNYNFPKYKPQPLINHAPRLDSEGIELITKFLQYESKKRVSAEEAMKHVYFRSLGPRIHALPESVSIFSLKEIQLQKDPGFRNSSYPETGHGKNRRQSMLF
Sequence of Cyclin-dependent kinase 4 (Homo sapiens) (P11802 whole entry): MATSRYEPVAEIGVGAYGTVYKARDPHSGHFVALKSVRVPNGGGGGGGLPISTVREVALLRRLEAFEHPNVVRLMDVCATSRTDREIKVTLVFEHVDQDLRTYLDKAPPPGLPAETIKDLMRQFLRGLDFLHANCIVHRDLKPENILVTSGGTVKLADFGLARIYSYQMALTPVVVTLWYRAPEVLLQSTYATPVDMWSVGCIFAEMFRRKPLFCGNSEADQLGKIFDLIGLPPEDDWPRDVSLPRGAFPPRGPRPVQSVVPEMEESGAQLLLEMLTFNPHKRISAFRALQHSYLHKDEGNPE
Sequence of Cyclin-dependent kinase 1 (Homo sapiens) (P06493 whole entry, looked up): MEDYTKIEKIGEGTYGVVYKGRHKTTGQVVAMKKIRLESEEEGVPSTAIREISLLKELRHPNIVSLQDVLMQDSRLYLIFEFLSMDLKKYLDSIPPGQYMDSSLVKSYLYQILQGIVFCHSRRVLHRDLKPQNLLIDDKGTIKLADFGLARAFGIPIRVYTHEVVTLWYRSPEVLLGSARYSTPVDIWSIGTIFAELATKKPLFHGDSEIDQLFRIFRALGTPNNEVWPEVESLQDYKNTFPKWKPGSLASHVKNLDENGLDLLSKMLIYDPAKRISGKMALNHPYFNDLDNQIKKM

IC50 [1]: > 10000 nM (not active) | IC50 [2]: > 10000 nM (not active) | IC50 [3]: ~200 nM (not active)
SMILES: CC(=O)N1CC(N2CCC(c3cc(C)c4c(c3)Nc3ncnc(N5CCS(=O)(=O)CC5)c3[C@@H](C)O4)CC2)C1

inhibition [4]: 10% | inhibition [5]: 11% | inhibition [6]: 0% | inhibition [7]: 11% | inhibition [8]: 5% | inhibition [9]: 21% | inhibition [10]: 5% | inhibition [11]: 7% | inhibition [12]: 7% | inhibition [13]: 25% | IC50 [14]: 3.8 nM | inhibition ([14]; Compound concentration 1.0 uM): 99% | inhibition [15]: 5% | inhibition [16]: 1% | inhibition [17]: 19% | inhibition [18]: 5% | inhibition [19]: 0% | inhibition [20]: 95% | inhibition [21]: 2% | inhibition [22]: 65% | KIapp [23]: 31 nM | inhibition [24]: 3% | inhibition [25]: 6% | inhibition [26]: 2% | IC50 [1]: 58 nM (active) | inhibition [27]: 10% | inhibition [28]: 45% | inhibition [29]: > 2% | IC50 [2]: > 10000 nM (not active) | inhibition [30]: 0% | inhibition [31]: 13% | IC50 [32]: 933 nM | inhibition ([32]; Compound concentration 1.0 uM): 36% | inhibition [33]: 11% | inhibition [34]: 15% | inhibition [35]: 17% | inhibition [36]: 5% | inhibition [37]: 14% | inhibition [38]: 11% | kinact/KIapp [39]: 2600 M⁻¹ s⁻¹ | inhibition [40]: 12% | inhibition [41]: 70%
SMILES: CC#CC(=O)N1CC(N2CCC(c3cc(C)c4c(c3)Nc3ncnc(N5CCS(=O)(=O)CC5)c3[C@@H](C)O4)CC2)C1
